In US11565998B2, “Succinate prodrug, compositions containing the succinate prodrug and uses thereof” (ABLIVA AB, priority 2019, dated 2023):
≈ marks a conversion by molar mass, not a printed value.

What was measured:
[1] = Solubility in aqueous formulations in comparison to other succinate prodrugs; format: physicochemical; conditions: pH 7.4, aqueous buffer, thermodynamic from solid; PBS pH7.4
Method: Solubility of Compound 1 in aqueous formulations in comparison to other succinate prodrugs was assessed by dissolving solid material in aqueous formulations and measuring the quantity in solution by HPLC (−MS). […] In many cases the max solubility of other prodrugs was lower than 100 uM. See Table 21 for example solubility data in PBS pH7.4 for other succinate prodrugs.

[2] = Caco-2 bioavailability in vitro assay (apparent permeability); format: in vitro ADME; conditions: human; Caco-2, apical to basolateral, 0.01 mM, pH 7.4, 1 h, 37° C.
Method: The cell penetrance and potential for oral bioavailability of Compound 1 was tested using a standard caco-2 bioavailability in vitro assay (in brief, confluent Caco-2 cells (L1, A. P., 1992; Grass, G. M; et al., 1992, Volpe, D. A., et al., 2001) in a 24 well Corning Costar Transwell format were provided by In Vitro Technologies Inc. (IVT Inc., Baltimore, Md., USA). The apical chamber contained 0.15 mL Hank's balanced buffer solution (HBBS) pH 7.4, 1% DMSO, 0.1 mM Lucifer Yellow. The basal chamber contained 0.6 mL HBBS pH 7.4, 1% DMSO. Controls and tests were incubated at 37° C. in a humidified incubator, shaken at 130 rpm for 1 h. Lucifer Yellow permeates via the paracellular (between the tight junctions) route only, a high Apparent Permeability (Papp) for Lucifer Yellow indicates cellular damage during assay and all such wells were rejected. Propranolol (good passive permeation with no known transporter effects) & acebutalol (poor passive permeation attenuated by active efflux by P-glycoprotein) were used as reference compounds. Compounds were tested in a uni- and bi-directional format by applying compound to the apical or basal chamber (at 0.01 mM). Compounds in the apical or basal chambers were analysed by HPLC-MS. Results were expressed as Apparent Permeability, Papp, (nm/s), in comparison to other succinate prodrugs, including a number from WO2015/155231.

[3] = Solubility of batches of different crystallinity; format: physicochemical
Method: Two batches of Compound 1 were generated with different crystallinity. Batch 2 had higher crystallinity than Batch 3, which is regarded as having a higher degree of amorphous Compound 1-Batch 2 is therefore regarded as a more crystalline batch, whereas Batch 3 is regarded as a more amorphous batch. The methods used are discussed in this document.
A sample of the more amorphous Compound 1 batch 3 was added to PBS or water to a final concentration of 258 mg/mL and sonicated for 10 minutes, then shaken for 30 minutes.
A sample of the more crystalline Compound 1 batch 2 was added to HPLC-grade water (Fisher) to a final concentration of 30 mg/mL and sonicated for 10 minutes, then shaken for 30 minutes.
A sample of the more crystalline Compound 1 batch 2 was added to HPLC-grade water (Fisher) to a final concentration of 52 mg/mL and sonicated for 20 minutes, then shaken for 1 hour.
A sample of the more crystalline Compound 1 batch 2 was added to HPLC-grade water (Fisher) to a final concentration of […] and sonicated for 20 minutes, then shaken for 1.5 hours.

[4] = Aqueous formulations of Compound 1 (water, PBS, saline), concentration by HPLC; format: physicochemical; conditions: for Calculated concentration by HPLC: 50% w/v in 100 mM PBS pH 7.4; for Calculated Conc.: tap water, target conc. 400 mg/ml; for 400 mg Compound in 0.7 ml Water, Measured Conc.: 400 mg in 0.7 ml
Method: Formulation Protocol • 1. Weigh out the required amount of Compound 1 then add the required amount of excipient (0.9% w/v saline, 100 mM PBS pH 7.4, water) to the solid Compound 1 to give the required mg/ml concentration of Compound 1. For example, for a 400 mg/ml formulation of Compound 1 in water, weigh out 400 mg of Compound 1 and add 0.7 ml of water. • 2. Sonicate the solution for 10 mins and then shake for 20 mins to ensure that Compound 1 is fully dissolved. • 3. The solution can be centrifuged (13000 rpm, 10 mins) to remove any particulates if required. • 4. The solution can be sterile filtered if required.
˜500 mg of compound was weighed into a vial, ˜500 μl 100 mM PBS pH 7.4 added and the vial was sonicated for 10 mins then shaken for 20 mins. A sample was then removed, diluted 1/2000 and the concentration calculated by HPLC analysis.
Compound 1 batch 3 was heated in an oven to 60° C. for 20 mins, at which point it became a translucent pale-yellow liquid. 100 mM PBS pH 7.4 (20% v/v) was added and the solution was mixed for 20 mins on a shaker. […] The solution was placed at 4° C. for 72 hours.
Method: • 1. Saline (0.9% w/v) was added to Compound 1 batch 11 in different amounts then sonicated for 10 mins—the samples remained slightly cloudy • 2. The samples were shaken for 30 mins at which point the solutions became translucent • 3. The solutions were diluted for HPLC analysis

[5] = Stability in purified (HPLC grade) or non-purified (tap) water; format: physicochemical; conditions: 1 mg/ml, room temperature
Method: A side-by-side experiment of the stability of Compound 1 in ‘purified’ HPLC grade water (Fisher Scientific) and ‘non-purified’ tap water was set up. In brief, 1 mg/mL solutions of Compound 1 were generated in ‘purified’ HPLC grade water (Fisher Scientific) and ‘non-purified’ tap water. These were incubated at room temperature for up to 10 days. Concentration and purity of Compound 1 was assessed over time by HPLC in comparison to a standard (AUC of 8.21 RT peak at 230 nm for calculated concentration and AUC of Compound 1 peak vs impurities for purity analysis). Data presented is the average of two samples.

[6] = Kinetic solubility (turbidity at 620 nm, dissolution rate constant); format: physicochemical; conditions: dissolution in PBS at 5° C., 460 mg/ml final concentration, 3 mins
Method: Solid Compound 1 Batches s3, s12-17 (˜80 mg) were added to wells of a flat clear bottom 96 well plate. PBS at 5° C. was added to give a 460 mg/ml final concentration of 01-354 for all batches. After addition of the PBS, the plate was agitated for 10 s then immediately analysed for turbidity at 620 nm in real time for 3 mins by an Epoch Microplate Spectrophotometer (BioTek). A rate constant for the dissolution was calculated from the exponential decay fit of the recorded data.

[7] = test system: human peripheral blood cells; assay: Metformin effect on mitochondrial function and lactate production of human blood cells; format: cell-based
Text: As mentioned above, increased lactate plasma levels are often observed in patients treated with drugs that may have mitochondrial-related side effects.

CC(OC(=O)CCC(=O)O)OC(=O)CCC(=O)O [A, reference compound]
solubility [1]: 52 µM (≈ 13.6 µg/mL)

CCN(CC)C(=O)[C@H](CSC(=O)CCC(=O)OC(C)C)NC(C)=O [A]
Papp A→B at 1 h, 0.01 mM [2]: 0.313 ×10⁻⁶ cm/s

CCN(CC)C(=O)[C@H](CSC(=O)CCC(=O)OC)NC(C)=O [B]
Papp A→B at 1 h, 0.01 mM [2]: 0.192 ×10⁻⁶ cm/s

COC(=O)CCC(=O)SCCNC(C)=O [Batch 2, Methyl 3-[(2-acetylaminoethylthio)carbonyl]propionate]
concentration reached ([3]; HPLC-grade water, added to 30 mg/mL, sonicated 10 minutes, shaken 30 minutes): 17000 µg/mL | concentration reached ([3]; HPLC-grade water, added to 52 mg/mL, sonicated 20 minutes, shaken 1 hour): 52000 µg/mL | concentration reached ([3]; HPLC-grade water, added to 2000 mg/mL, sonicated 20 minutes, shaken 1.5 hours): 850000 µg/mL | solubility at 1.5 h ([3]; HPLC-grade water, water, thermodynamic from solid, more crystalline Compound 1, read-out: water solubility): ≥ 850 mg/mL

COC(=O)CCC(=O)SCCNC(C)=O [Batch 3, Methyl 3-[(2-acetylaminoethylthio)carbonyl]propionate]
Calculated concentration by HPLC [4]: 535 mg/mL | appearance of liquid formulation ([4]; batch 3 melted at 60° C., 100 mM PBS pH 7.4 (20% v/v) added, 72 hours at 4° C.): remained a translucent liquid | Calculated Conc. [4]: 381 mg/mL | 400 mg Compound in 0.7 ml Water, Measured Conc. [4]: 381 mg/mL | solubility at 30 min ([3]; PBS or water, water, thermodynamic from solid, PBS or water, added to 258 mg/mL, sonicated 10 minutes, shaken 30 minutes, read-out: concentration reached): ≥ 258 mg/mL | Calculated Conc. ([5]; HPLC grade water, day 0): 1.02 mg/mL | Purity ([5]; HPLC grade water, day 0): 99.0% | Calculated Conc. ([5]; HPLC grade water, day 3): 1.04 mg/mL | Purity ([5]; HPLC grade water, day 3): 98.8% | Calculated Conc. ([5]; HPLC grade water, day 5): 1.03 mg/mL | Purity ([5]; HPLC grade water, day 5): 99.0% | Calculated Conc. ([5]; HPLC grade water, day 6): 1.01 mg/mL | Purity ([5]; HPLC grade water, day 6): 99.0% | Calculated Conc. ([5]; tap water, day 0): 1.06 mg/mL | Purity ([5]; tap water, day 0): 98.5% | Calculated Conc. ([5]; tap water, day 3): 0.98 mg/mL | Purity ([5]; tap water, day 3): 95.7% | Calculated Conc. ([5]; tap water, day 5): 0.93 mg/mL | Purity ([5]; tap water, day 5): 94.4% | Calculated Conc. ([5]; tap water, day 6): 0.89 mg/mL | Purity ([5]; tap water, day 6): 93.3% | Calculated Conc. ([5]; tap water, day 10): 0.83 mg/mL | Purity ([5]; tap water, day 10): 93.0% | Rate constants, k [6]: 0.014 s⁻¹

COC(=O)CCC(=O)SCCNC(C)=O [Batch 4, Methyl 3-[(2-acetylaminoethylthio)carbonyl]propionate]
Calculated concentration by HPLC [4]: 526 mg/mL

COC(=O)CCC(=O)SCCNC(C)=O [Batch 5, Methyl 3-[(2-acetylaminoethylthio)carbonyl]propionate]
Calculated concentration by HPLC [4]: 531 mg/mL

COC(=O)CCC(=O)SCCNC(C)=O [Batch 6, Methyl 3-[(2-acetylaminoethylthio)carbonyl]propionate]
Calculated concentration by HPLC [4]: 543 mg/mL

COC(=O)CCC(=O)SCCNC(C)=O [Batch 12, Methyl 3-[(2-acetylaminoethylthio)carbonyl]propionate]
Calculated Conc. [4]: 378 mg/mL | 400 mg Compound in 0.7 ml Water, Measured Conc. [4]: 378 mg/mL | Rate constants, k [6]: 0.022 s⁻¹

COC(=O)CCC(=O)SCCNC(C)=O [Batch 13, Methyl 3-[(2-acetylaminoethylthio)carbonyl]propionate]
Calculated Conc. [4]: 395 mg/mL | 400 mg Compound in 0.7 ml Water, Measured Conc. [4]: 395 mg/mL | Rate constants, k [6]: 0.013 s⁻¹

COC(=O)CCC(=O)SCCNC(C)=O [Batch 14, Methyl 3-[(2-acetylaminoethylthio)carbonyl]propionate]
Calculated Conc. [4]: 366 mg/mL | 400 mg Compound in 0.7 ml Water, Measured Conc. [4]: 366 mg/mL | Rate constants, k [6]: 0.011 s⁻¹

COC(=O)CCC(=O)SCCNC(C)=O [Batch 15, Methyl 3-[(2-acetylaminoethylthio)carbonyl]propionate]
400 mg Compound in 0.7 ml Water, Measured Conc. [4]: 414 mg/mL | Rate constants, k [6]: 0.074 s⁻¹

COC(=O)CCC(=O)SCCNC(C)=O [Batch 16, Methyl 3-[(2-acetylaminoethylthio)carbonyl]propionate]
400 mg Compound in 0.7 ml Water, Measured Conc. [4]: 435 mg/mL | Rate constants, k [6]: 0.055 s⁻¹

COC(=O)CCC(=O)SCCNC(C)=O [Batch 17, Methyl 3-[(2-acetylaminoethylthio)carbonyl]propionate]
Rate constants, k [6]: 0.111 s⁻¹

CCOC(=O)CCC(=O)SCCNC(C)=O [C]
Papp A→B at 1 h, 0.01 mM [2]: 0.128 ×10⁻⁶ cm/s

CC(=O)NCC(C)SC(=O)CCC(=O)OC(C)C (stereo not drawn) [D]
Papp A→B at 1 h, 0.01 mM [2]: 0.142 ×10⁻⁶ cm/s

CC(=O)NCCSC(=O)CCC(=O)OCC(C)(C)C [E]
Papp A→B at 1 h, 0.01 mM [2]: < 0.021 ×10⁻⁶ cm/s

COC(=O)CCC(=O)SC(C)CNC(C)=O (stereo not drawn) [F]
Papp A→B at 1 h, 0.01 mM [2]: 0.145 ×10⁻⁶ cm/s

CCOC(=O)CCC(=O)SC(C)CNC(C)=O (stereo not drawn) [G]
Papp A→B at 1 h, 0.01 mM [2]: 0.087 ×10⁻⁶ cm/s

O=C1CNC(=O)[C@H](CSC(=O)CCC(=O)SC[C@@H]2NC(=O)CNC2=O)N1 [HI]
Papp A→B at 1 h, 0.01 mM [2]: 0.262 ×10⁻⁶ cm/s

CC(=O)NCCSC(=O)CCC(=O)OC(C)C [J]
Papp A→B at 1 h, 0.01 mM [2]: 0.135 ×10⁻⁶ cm/s

CCOC(=O)CCC(=O)SC[C@H](NC(C)=O)C(=O)N(CC)CC [K]
Papp A→B at 1 h, 0.01 mM [2]: 0.168 ×10⁻⁶ cm/s

CC(=O)NCC(C)SC(=O)CCC(=O)OCC(C)(C)C (stereo not drawn) [L]
Papp A→B at 1 h, 0.01 mM [2]: 0.016 ×10⁻⁶ cm/s

CCNC(=O)[C@H](CSC(=O)CCC(=O)SC[C@H](NC(=O)CC)C(=O)N(CC)CC)NC(=O)CC [M]
Papp A→B at 1 h, 0.01 mM [2]: 0.097 ×10⁻⁶ cm/s

CN(C)C(=N)N=C(N)N [Metformin]
mitochondrial function at Complex I ([7]; human peripheral blood cells, concentrations relevant for metformin intoxication): inhibits mitochondrial function of human peripheral blood cells at Complex I in a time- and dose-dependent fashion | lactate production ([7]; intact platelets, over time): significant increase in lactate production
